Like-named read-outs stand apart in the source and are kept apart here.
Assays:
[1] = target: T1, ITK (Homo sapiens, UniProt Q08881); assay: NanoBRET in-cell target engagement, ITK; type: binding
T1 construct: host or cells: HEK296T (so in the source)
T1 sequence (Q08881 1-620): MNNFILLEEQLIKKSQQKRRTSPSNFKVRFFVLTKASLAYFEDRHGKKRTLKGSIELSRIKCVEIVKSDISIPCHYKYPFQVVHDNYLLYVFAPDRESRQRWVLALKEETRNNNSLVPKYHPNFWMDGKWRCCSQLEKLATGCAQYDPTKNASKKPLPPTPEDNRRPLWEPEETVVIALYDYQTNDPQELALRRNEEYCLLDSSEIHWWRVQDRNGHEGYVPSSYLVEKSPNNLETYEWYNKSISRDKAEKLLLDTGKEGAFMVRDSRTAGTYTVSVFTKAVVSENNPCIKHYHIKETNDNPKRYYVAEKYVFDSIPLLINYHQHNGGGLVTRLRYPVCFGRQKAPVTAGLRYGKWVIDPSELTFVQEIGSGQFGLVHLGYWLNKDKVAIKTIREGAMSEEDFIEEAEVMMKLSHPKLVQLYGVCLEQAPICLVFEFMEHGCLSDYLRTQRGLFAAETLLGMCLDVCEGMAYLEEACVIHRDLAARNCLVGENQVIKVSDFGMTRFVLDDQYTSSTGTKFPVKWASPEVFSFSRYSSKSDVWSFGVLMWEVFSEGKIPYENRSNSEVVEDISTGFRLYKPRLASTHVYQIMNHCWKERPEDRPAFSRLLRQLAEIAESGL
Procedure: (§1) In-cell target engagement was performed at Reaction Biology Corporation, using NanoBRET technology. Very briefly, HEK296T cells were transfected and treated in duplicate with JS25 for 1 h of incubation. The compound was diluted 10 times with 3-fold dilution, starting at 1 μM. Curve fits were performed only when the % NanoBret signal at the highest concentration of compounds was less than 55%. The IC50 values were determined using GraphPad Prism 8 ([…]).

[2] = test system: HBEC-5i cell model; assay: In vitro blood–brain barrier permeability (translocation), HBEC-5i cell model; type: in vitro ADME, human; conditions: Translocation 24 h, compound 15 μM
Procedure: Human cerebral microvascular endothelial cells (HBEC-5i) were cultured as a monolayer on attachment factor protein solution (AF)-coated T-flasks (Gibco), using DMEM/F12 medium (Gibco), supplemented with 10% FBS, 1% penicillin/streptomycin, and 40.0 μg/mL endothelial cell growth supplement (ECGS, Sigma), according to the manufacturer’s instructions. The capacity of the compounds to cross the brain–blood barrier (BBB) was evaluated using an in vitro HBEC-5i cell model, as previously described.[29] Samples from the apical and basolateral sides were collected, and fluorescence intensity was measured using a Varioskan LUX multimode microplate reader. The retention was considered the difference between the initial fluorescence of compounds (100%) and the aggregated apical and basolateral fluorescence.

[3] = target: BLK (Homo sapiens, UniProt P51451); assay: NanoBRET in-cell target engagement, BLK; type: binding; design: host or cells: HEK296T (so in the source)
BLK, sequence (P51451 whole entry): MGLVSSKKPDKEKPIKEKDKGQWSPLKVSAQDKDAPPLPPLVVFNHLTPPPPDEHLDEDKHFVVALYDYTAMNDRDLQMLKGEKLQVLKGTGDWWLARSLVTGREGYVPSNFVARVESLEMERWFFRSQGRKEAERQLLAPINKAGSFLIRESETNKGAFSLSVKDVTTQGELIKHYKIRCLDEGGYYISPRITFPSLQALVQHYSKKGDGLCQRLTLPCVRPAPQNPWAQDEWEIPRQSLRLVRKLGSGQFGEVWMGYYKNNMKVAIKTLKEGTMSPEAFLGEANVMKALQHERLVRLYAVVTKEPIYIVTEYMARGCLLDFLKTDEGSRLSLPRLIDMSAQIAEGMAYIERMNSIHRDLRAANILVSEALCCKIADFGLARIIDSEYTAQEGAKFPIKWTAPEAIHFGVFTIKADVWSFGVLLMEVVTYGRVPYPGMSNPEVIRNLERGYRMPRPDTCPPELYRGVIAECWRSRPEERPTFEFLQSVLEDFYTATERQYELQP
Procedure: as §1

[4] = target: T2, EGFR (Homo sapiens, UniProt P00533); assay: NanoBRET in-cell target engagement, EGFR; type: binding; conditions: HEK296T cells, 1 h incubation, average of duplicates
T2 construct: host or cells: HEK296T (so in the source)
T2 sequence (P00533 25-1210): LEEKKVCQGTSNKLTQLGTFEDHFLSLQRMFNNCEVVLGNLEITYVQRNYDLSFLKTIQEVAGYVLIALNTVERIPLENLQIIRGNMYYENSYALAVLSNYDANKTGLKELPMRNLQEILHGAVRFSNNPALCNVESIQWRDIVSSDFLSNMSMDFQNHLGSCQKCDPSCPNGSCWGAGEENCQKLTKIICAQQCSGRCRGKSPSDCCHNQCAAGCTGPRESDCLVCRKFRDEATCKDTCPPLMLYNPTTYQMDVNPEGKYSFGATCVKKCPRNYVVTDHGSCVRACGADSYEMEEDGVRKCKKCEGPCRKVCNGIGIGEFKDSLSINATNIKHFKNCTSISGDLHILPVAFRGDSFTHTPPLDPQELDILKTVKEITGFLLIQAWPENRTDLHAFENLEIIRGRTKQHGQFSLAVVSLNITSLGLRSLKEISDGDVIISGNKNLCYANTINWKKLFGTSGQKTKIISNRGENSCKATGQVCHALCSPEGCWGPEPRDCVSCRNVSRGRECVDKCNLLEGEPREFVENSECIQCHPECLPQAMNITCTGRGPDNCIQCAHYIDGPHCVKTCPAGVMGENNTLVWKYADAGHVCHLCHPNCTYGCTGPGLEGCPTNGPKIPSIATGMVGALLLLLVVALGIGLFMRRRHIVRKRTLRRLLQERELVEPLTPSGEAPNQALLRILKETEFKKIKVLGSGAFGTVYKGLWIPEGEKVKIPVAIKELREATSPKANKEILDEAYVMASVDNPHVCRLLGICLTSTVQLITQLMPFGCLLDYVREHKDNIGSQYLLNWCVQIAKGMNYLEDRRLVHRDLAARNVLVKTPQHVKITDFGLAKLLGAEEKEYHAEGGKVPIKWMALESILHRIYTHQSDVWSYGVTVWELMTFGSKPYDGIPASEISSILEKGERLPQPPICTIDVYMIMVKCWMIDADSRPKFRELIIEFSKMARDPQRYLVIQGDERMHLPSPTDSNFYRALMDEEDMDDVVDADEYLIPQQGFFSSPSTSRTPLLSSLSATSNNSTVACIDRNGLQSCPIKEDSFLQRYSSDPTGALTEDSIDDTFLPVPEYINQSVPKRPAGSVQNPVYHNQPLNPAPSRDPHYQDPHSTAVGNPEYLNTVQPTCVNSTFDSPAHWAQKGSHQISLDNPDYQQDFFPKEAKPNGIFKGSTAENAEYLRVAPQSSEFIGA
Procedure: as §1

[5] = target: T3, ERBB2 (Homo sapiens, UniProt P04626); assay: NanoBRET in-cell target engagement, ERBB2; type: binding; conditions: HEK296T cells, 1 h incubation, average of duplicates
T3 construct: host or cells: HEK296T (so in the source)
T3 sequence (P04626 23-1255): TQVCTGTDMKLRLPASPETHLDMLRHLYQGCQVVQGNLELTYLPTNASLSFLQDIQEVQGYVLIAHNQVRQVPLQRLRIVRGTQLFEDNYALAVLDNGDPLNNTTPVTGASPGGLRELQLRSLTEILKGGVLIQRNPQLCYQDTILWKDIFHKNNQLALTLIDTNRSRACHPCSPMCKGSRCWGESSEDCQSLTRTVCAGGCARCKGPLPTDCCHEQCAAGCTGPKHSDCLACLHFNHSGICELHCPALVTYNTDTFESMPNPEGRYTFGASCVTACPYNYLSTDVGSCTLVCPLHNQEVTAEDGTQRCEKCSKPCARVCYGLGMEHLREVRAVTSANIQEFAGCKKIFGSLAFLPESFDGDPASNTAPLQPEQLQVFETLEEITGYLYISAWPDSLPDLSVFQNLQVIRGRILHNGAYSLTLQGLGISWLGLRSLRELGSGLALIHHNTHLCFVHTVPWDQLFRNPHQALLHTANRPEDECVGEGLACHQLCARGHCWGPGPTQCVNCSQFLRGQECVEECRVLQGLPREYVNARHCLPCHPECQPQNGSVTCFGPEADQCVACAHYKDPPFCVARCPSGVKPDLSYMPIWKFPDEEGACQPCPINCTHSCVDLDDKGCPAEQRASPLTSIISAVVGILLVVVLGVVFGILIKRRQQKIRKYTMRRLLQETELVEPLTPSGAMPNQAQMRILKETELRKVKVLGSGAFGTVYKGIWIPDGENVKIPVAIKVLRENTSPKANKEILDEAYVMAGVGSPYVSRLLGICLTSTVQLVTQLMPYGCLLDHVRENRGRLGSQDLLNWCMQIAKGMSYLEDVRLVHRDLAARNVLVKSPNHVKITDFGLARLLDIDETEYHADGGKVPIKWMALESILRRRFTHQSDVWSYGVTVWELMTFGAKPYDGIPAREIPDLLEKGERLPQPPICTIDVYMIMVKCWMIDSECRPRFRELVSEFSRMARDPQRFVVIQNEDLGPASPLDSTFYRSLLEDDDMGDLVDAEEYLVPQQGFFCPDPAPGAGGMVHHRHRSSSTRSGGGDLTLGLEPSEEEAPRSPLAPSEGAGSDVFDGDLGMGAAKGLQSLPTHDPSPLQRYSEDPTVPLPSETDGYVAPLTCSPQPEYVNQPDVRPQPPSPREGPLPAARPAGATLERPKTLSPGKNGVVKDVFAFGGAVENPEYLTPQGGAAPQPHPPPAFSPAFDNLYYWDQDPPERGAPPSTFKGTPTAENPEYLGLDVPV
Procedure: as §1

For `C=CC(=O)Nc1cc(C)cc(-n2c(=O)ccc3cnc4ccc(-c5ccc(NS(C)(=O)=O)cc5)cc4c32)c1` [JS25], the “selectivity for BTK relative to ITK” value [1] was 15 fold, the IC50 ([1]; HEK296T cells, 1 h incubation, average of duplicates) was 440 nM and the “selectivity (kinase/BTK), ITK” value ([1]; IC50 kinase/IC50 BTK) was 15.4. For the same compound, the “% Fluorescence, Basolateral side (permeability to the BBB)” value [2] was 28.5%, the “selectivity for BTK relative to BLK” value [3] was 100 fold and the IC50 ([3]; HEK296T cells, 1 h incubation, average of duplicates, read-out: IC50 (M), BLK) was 2.6e-06 M. It also gave an IC50 ([3]; NanoBRET value as given in Table S3, read-out: IC50, BLK) of roughly 3e-06 M, an IC50 [4] greater than 3000 nM and an IC50 [5] greater than 3000 nM.
